Key:
Type in all cases: cell-based, mouse
BMDC = experiment: Measurement of reactive oxygen species (ROS) in DC with dichlorofluorescein, flow cytometry; conditions: for effect on DMF-induced ROS increase in DC: added to DMF, 1 mM
Experimental: For the measurement of reactive oxygen species (ROS) in DC and APC, the fluorescent dye 2′,7′ dichlorofluorescein (H2 DCFDA, Molecular Probes, Eugene, USA) was used. 5×10^5 DC were preincubated in 1 ml of RPMI medium (without mercaptoethanol) for 60 mins at 37° C. in the incubator with 1% DMSO or 10 μg/ml DMF+/−NAC (1 mM) or GSX (1 mM). After this preincubation, 1 μM/ml H2 DCFDA was added and the cells incubated for a further 30 mins at 37° C. Within one hour, the fluorescence produced was detected using flow cytometry (FL1).
(§1) As antigen presenting cells (APC), T cell depleted spleen cells from syngenic mice were used. Dendritic cells (DC) which were obtained from bone marrow (BMDC) and cultured with GM-CSF were used for the relevant experiments on day 7 of culturing. For the experiment, in each case an equal number of APC were cultured either with the medium alone, with L-BSO (C8H18N2O3S, 0.5 mM), dimethyl sulfoxide DMSO(C2H6OS), dimethyl fumarate DMF (C6H8O4, dissolved in DMSO, 70 μM), or calcium monomethyl fumarate (MMF; CaC10H10O8, 200 μM). All substances except for MMF (Fumapharm) were purchased from Sigma-Aldrich. At the respective stated times (see below) the cells were either analyzed directly for their GSH content, used for T cell stimulation or stimulated for IL-2 production with Escherichia coli lipopolysaccharides 055.B5 (Sigma-Aldrich) or CpG-DNA 1668 (MWG Biotech) and IL-4 (Stratmann). In order to raise the GSH level again, 1 mM GSH-OEt (C12H21N3O6S; Sigma-Aldrich) or 1 mM NAC (Sigma-Aldrich) was added.
For testing the potential of pharmaceutical substances to induce the ROS, the following procedure was developed: for the measurement of reactive oxygen species (ROS) in cells, the fluorescent dye 2′,7′ dichlorofluorescein (H2 DCFDA) is used. The absorption spectrum of the substance is 492-495 nm and the emission spectrum lies in the range between 517-527 nm. On induction of cell stress, e.g., by the administration of ROS-causing reagents, oxidation of the H2 DCFDA to DCFDA+H2 occurs. The fluorescence arising as a result can be detected using flow cytometry (FL1).

IL-12 = IL-12 production by DC, ELISA of culture supernatants; conditions: for effect on IL-12 suppression caused by GSH depletion in DC: exogenous addition, 1 mM
Experimental: (§2) IL-4, IL-10, IL-12 and interferon-γ were determined using the ELISA (enzyme linked immunosorbent assay) set or with the use of individual components from BD BioSciences. IL-23 in the supernatant was determined using the ELISA set (eBioscience). For intracytoplasmic cytokine analyses, the T cells were restimulated with PMA/ionomycin or with APC and peptide in the presence of brefeldin A, then fixed and permeabilized and stained. For the surface staining, anti-CD4 or KJ1-26 antibodies were used; the cytokine antibodies (PE labeled) were all obtained from BD Pharmingen.
as §1, with “used for T cell stimulation or stimulated for IL-2 production with Escherichia coli lipopolysaccharides” left out

IL-23 = IL-23 production by DC, ELISA of culture supernatants; conditions: GSH-OEt added to DMF
Experimental: as §2
as §1, with “added. The GSH reservoirs in mice were depleted by feeding with DMF or MMF, and in man by treatment with Fumaderm®.” for “added.”

IL-10 = IL-10 production by DC, ELISA of culture supernatants; conditions: GSH-OEt added to DMF
Experimental: as §2
as §1, with “All substances except for MMF (Fumapharm) were purchased from Sigma-Aldrich.” left out, “In order to raise the GSH level again, 1 mM GSH-OEt (C12H21N3O6S; Sigma-Aldrich) or 1 mM NAC (Sigma-Aldrich) was added.” left out

Row | SMILES | effect on DMF-induced ROS increase in DC (BMDC) | effect on IL-12 suppression caused by GSH depletion in DC (IL-12) | IL-23 production in DC, added to DMF (IL-23) | IL-10 production in DC, added to DMF (IL-10) | intracellular ROS in DC (BMDC; dichlorofluorescein, flow cytometry) | IL-12 production by DC (IL-12; after stimulation with LPS)
1 | CCOC(=O)CNC(=O)[C@H](CS)NC(=O)CC[C@H](N)C(=O)O [GSH-OEt, GSH ethyl ester] | completely neutralized | neutralized the IL-12 suppression | restored IL-23 production | decreased IL-10 production | – | –
2 | OO [H2O2, hydrogen peroxide] | – | – | – | – | induction of ROS | lower the production of IL-12
3 | CC(=O)N[C@@H](CS)C(=O)O [NAC, N-acetylcysteine] | completely neutralized | same effects as GSH-OEt | – | – | – | –
